The source of these data is ChEMBL document CHEMBL4725339, “Discovery of USP7 small-molecule allosteric inhibitors” (Bioorg Med Chem Lett, 2020).

The source made the active and inactive calls. The rule behind the calls is not given here. Where only a bound is given, the exact number is not on record here.

Data set [1] concerns the target T1, Ubiquitin carboxyl-terminal hydrolase 7 (Homo sapiens, UniProt Q93009). As to the kind of experiment: Inhibition of recombinant full length USP7 (unknown origin) using di-ubiquitin as substrate by fluorescence based assay.
Target sequence in this assay (Q93009 whole entry): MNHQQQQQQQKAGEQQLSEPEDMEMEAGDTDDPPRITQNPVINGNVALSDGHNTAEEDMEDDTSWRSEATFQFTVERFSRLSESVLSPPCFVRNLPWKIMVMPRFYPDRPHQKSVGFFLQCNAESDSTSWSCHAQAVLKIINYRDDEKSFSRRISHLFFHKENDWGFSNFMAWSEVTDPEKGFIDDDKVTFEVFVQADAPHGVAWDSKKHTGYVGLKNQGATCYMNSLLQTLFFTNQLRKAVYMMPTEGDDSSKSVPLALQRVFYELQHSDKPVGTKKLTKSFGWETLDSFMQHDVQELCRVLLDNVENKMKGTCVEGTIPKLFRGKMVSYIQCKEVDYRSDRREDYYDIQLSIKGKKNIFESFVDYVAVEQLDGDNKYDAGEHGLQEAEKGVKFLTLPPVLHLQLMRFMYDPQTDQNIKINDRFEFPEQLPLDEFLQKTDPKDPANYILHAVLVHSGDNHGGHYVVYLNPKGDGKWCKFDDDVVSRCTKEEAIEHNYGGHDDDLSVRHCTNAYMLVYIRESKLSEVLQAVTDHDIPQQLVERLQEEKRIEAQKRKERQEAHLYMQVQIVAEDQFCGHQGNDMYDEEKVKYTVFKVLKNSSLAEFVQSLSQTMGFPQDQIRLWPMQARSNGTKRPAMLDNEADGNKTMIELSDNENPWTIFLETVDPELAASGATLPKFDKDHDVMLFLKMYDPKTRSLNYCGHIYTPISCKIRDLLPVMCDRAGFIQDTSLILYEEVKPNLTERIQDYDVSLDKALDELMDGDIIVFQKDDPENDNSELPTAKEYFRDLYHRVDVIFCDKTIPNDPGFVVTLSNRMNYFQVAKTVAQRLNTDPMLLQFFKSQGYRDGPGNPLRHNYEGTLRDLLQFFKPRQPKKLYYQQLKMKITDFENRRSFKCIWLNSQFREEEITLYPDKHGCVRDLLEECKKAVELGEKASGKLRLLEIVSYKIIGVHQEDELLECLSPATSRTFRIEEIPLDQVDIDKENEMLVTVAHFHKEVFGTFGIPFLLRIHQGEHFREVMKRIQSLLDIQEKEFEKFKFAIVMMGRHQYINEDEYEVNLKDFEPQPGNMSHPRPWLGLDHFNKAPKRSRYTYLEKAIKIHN
Data set [2] concerns the target T2, Ubiquitin carboxyl-terminal hydrolase 47 (Homo sapiens, UniProt Q96K76).
T2 sequence (Q96K76 whole entry): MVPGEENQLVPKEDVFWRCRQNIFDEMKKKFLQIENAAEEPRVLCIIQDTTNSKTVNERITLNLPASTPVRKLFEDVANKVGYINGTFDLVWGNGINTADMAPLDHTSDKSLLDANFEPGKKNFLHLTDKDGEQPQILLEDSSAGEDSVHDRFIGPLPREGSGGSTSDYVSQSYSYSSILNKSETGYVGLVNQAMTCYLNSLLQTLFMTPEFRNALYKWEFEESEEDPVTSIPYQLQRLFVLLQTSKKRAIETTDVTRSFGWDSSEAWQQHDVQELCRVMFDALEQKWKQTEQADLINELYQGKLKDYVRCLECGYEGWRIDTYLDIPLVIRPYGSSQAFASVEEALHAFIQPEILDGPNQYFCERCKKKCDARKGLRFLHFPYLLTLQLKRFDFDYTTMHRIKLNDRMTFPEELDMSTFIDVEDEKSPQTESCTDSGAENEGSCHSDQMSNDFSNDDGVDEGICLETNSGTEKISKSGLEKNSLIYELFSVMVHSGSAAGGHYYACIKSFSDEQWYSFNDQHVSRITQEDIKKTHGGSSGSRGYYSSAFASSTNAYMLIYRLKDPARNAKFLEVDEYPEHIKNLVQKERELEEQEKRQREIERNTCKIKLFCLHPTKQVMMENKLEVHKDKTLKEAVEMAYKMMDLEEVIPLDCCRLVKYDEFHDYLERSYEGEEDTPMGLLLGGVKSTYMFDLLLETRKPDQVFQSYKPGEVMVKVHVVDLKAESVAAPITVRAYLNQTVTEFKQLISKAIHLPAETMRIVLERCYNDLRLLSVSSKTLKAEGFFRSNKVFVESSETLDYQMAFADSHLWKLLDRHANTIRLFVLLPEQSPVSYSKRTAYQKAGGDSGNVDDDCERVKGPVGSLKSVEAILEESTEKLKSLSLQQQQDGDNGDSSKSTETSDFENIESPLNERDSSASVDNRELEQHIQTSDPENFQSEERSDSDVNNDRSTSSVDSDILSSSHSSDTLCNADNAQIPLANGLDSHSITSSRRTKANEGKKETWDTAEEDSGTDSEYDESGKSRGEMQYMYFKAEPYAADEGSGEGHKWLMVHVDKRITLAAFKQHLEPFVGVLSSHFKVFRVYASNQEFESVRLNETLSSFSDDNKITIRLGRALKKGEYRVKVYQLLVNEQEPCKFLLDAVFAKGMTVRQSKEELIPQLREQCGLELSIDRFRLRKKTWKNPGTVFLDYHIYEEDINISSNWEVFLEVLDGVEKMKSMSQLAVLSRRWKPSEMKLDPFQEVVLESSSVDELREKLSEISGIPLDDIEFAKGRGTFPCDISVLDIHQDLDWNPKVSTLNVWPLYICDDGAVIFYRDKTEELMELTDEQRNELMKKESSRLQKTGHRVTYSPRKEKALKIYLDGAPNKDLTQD
The experiment in a line: Inhibition of USP47 (unknown origin).

The target in data set [3] is T3, Ubiquitin carboxyl-terminal hydrolase 1 (Homo sapiens, UniProt O94782).
T3 sequence (O94782 whole entry): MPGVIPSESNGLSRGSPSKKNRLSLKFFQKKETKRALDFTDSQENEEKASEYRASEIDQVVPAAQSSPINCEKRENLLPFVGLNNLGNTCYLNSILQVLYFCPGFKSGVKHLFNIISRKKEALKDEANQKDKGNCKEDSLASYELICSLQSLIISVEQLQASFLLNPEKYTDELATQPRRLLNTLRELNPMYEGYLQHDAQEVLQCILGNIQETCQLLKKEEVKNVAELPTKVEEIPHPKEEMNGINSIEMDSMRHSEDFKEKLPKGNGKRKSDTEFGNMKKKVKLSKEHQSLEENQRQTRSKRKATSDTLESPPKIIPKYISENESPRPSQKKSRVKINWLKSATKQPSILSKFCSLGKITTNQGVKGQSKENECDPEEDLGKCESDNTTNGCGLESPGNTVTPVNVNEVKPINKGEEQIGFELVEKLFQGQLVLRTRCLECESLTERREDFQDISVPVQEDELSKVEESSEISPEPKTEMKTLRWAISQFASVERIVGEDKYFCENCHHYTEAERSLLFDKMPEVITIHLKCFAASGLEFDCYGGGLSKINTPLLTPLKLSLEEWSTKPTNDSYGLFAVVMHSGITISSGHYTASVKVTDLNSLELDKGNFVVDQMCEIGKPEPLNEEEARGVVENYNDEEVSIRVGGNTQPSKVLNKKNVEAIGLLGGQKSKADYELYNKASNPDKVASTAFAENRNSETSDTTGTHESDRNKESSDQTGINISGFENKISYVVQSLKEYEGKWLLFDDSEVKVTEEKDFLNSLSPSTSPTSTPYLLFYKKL
The experiment in a line: Inhibition of USP1 (unknown origin).

In data set [4] the target is Ubiquitin carboxyl-terminal hydrolase 14 (Homo sapiens, UniProt P54578). As to the kind of experiment: Inhibition of USP14 (unknown origin).
Sequence of Ubiquitin carboxyl-terminal hydrolase 14 (P54578 whole entry): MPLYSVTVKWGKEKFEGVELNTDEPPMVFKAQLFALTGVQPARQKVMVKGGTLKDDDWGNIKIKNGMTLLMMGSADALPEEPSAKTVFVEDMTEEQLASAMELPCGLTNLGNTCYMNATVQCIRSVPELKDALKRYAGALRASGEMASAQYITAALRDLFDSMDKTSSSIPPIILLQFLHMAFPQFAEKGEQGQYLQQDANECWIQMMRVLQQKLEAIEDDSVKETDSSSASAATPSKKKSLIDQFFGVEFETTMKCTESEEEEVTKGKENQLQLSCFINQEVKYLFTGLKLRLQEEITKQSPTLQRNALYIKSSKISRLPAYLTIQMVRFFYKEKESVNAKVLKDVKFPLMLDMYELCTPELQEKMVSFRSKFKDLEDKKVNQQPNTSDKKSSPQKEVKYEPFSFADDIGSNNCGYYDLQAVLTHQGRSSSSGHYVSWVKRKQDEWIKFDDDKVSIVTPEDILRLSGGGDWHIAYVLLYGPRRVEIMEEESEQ
The species entered for data set [5] is Homo sapiens. The experiment in a line: Selectivity index, ratio of IC50 for USP47 (unknown origin) to IC50 for recombinant full length USP7 (unknown origin) using di-ubiquitin as substrate by fluorescence based assay.
Data set [6] is filed under the species Homo sapiens. The experiment in a line: Selectivity index, ratio of IC50 for USP1 (unknown origin) to IC50 for recombinant full length USP7 (unknown origin) using di-ubiquitin as substrate by fluorescence based assay.
The species named for data set [7] is Homo sapiens. As to the kind of experiment: Selectivity index, ratio of IC50 for USP14 (unknown origin) to IC50 for recombinant full length USP7 (unknown origin) using di-ubiquitin as substrate by fluorescence based assay.
The target in data set [8] is T1, Ubiquitin carboxyl-terminal hydrolase 7. As to the kind of experiment: Inhibition of recombinant human His-tagged USP7 (208 to 560 residues) expressed in Hi-five Sf9 cells using monoubiquitinated ubiquitin-rhodamine as substrate incubated for 1 hr by fluorescence based assay.
Target sequence in this assay (Q93009 whole entry): as the sequence (Q93009 whole entry) above
For data set [9] the target is unchanged. As to the kind of experiment: Inhibition of recombinant human C-terminal His-tagged N-terminal GST-tagged full length USP7 using di-ubiquitin as substrate preincubated for 10 mins followed by substrate addition and measured after 60 mins by TR-FRET assay.
Target sequence in this assay (Q93009 whole entry): as above
The nature of data set [10]: Aqueous solubility of compound. It is filed as physicochemical. The note with it: water (aqueous).
Data set [11] concerns the target T1, Ubiquitin carboxyl-terminal hydrolase 7. The experiment in a line: Allosteric binding affinity to USP7 catalytic domain (unknown origin) at His403, Gln351, Leu304, Ser353, Met328, Trp285 and Gly284 residues at 1.12 mM by NMR-15N-1H TROSY spectral titration analysis.
Target sequence in this assay (Q93009 whole entry, looked up): as the sequence (Q93009 whole entry) above
The target is the same in data set [12]. As to the kind of experiment: Allosteric binding affinity to USP7 catalytic domain (unknown origin) at Met328, Trp285, Gly284, Gln405 and Gly313 residues by NMR-15N-1H TROSY spectral titration analysis.
Target sequence in this assay (Q93009 whole entry): as above
For data set [13] the target is unchanged. The experiment in a line: Allosteric binding affinity to USP7 catalytic domain (unknown origin) at Met328 residues by NMR-15N-1H TROSY spectral titration analysis.
Target sequence in this assay (Q93009 whole entry): as above
Data set [14] has the same target. The experiment in a line: Binding affinity to USP7 (unknown origin) by T2 relaxation experiment based analysis.
Target sequence in this assay (Q93009 whole entry): as above
The target is the same in data set [15]. The experiment in a line: Binding affinity to USP7 (unknown origin) by 1H-NMR-STD analysis.
Target sequence in this assay (Q93009 whole entry, looked up): as the sequence (Q93009 whole entry) above
Data set [16] shares this target. As to the kind of experiment: Binding affinity to USP7 (unknown origin) by 1H-1H-NOESY experiment based analysis.
Target sequence in this assay (Q93009 whole entry, looked up): as the sequence (Q93009 whole entry) above

Consider `CC(C)Nc1nc2ccccn2c1-c1ccc(O)cc1`, for which the IC50 was 7.9 µM in [1], greater than 100 µM in [2], greater than 100 µM in [3] and greater than 100 µM in data set [4]. The Ratio IC50 in the data set listed under Homo sapiens [5], in the data set listed under Homo sapiens [6] and in the data set listed under Homo sapiens [7] was greater than 2 each time.

In the case of `Nc1nc2ccccn2c1-c1ccc(O)cc1`, the 50% inhibitory concentration (IC50) in [1] was 24 µM; in [2], greater than 100 µM; in [3], greater than 100 µM; in data set [4], greater than 100 µM. In addition, the Ratio IC50 in the data set listed under Homo sapiens [5], in the data set listed under Homo sapiens [6] and in the data set filed under Homo sapiens [7] was greater than 2 in each case.

Regarding `CN(C)c1nc2ccccn2c1-c1ccc(O)cc1`, the IC50 is 24 µM in [1], greater than 100 µM in [2], greater than 100 µM in [3] and greater than 100 µM in data set [4]. Also, the Ratio IC50 in the data set listed under Homo sapiens [5], in the data set filed under Homo sapiens [6] and in the data set filed under Homo sapiens [7] was greater than 2 throughout.

Consider `CNc1nc2ccccn2c1-c1ccc(O)cc1`, for which the IC50 in data set [1] is 16 µM; in data set [2], greater than 100 µM; in [3], greater than 100 µM; in [4], greater than 100 µM. The Ratio IC50 in the data set listed under Homo sapiens [5], in the data set listed under Homo sapiens [6] and in the data set listed under Homo sapiens [7] was greater than 2 throughout.

For `Cc1ccc2nc(N)c(-c3ccc(O)cc3)n2c1`, the IC50 is 39 µM in data set [1], greater than 100 µM in [2], greater than 100 µM in data set [3] and greater than 100 µM in data set [4]. Besides, the Ratio IC50 in the data set listed under Homo sapiens [5], in the data set listed under Homo sapiens [6] and in the data set listed under Homo sapiens [7] was greater than 2 throughout.

Consider `O=C(C[C@@H](C(F)F)n1ccc(F)n1)N1CCC(O)(Cn2cnc3c(cnn3-c3ccc(F)cc3)c2=O)CC1`, for which the IC50 in data set [8] amounted to 0.052 µM.

Regarding `Cc1cccn2c(-c3ccc(O)cc3)c(N)nc12`, the 50% inhibitory concentration (IC50) in data set [1] was 8.8 µM; in [2], greater than 100 µM; in [3], greater than 100 µM; in [4], greater than 100 µM. Also, the Ratio IC50 in the data set filed under Homo sapiens [5], in the data set filed under Homo sapiens [6] and in the data set filed under Homo sapiens [7] was greater than 2 each time.

As to `Cc1ccn2c(-c3ccc(O)cc3)c(N)nc2c1`, the IC50 was 27 µM in data set [1], greater than 100 µM in data set [2], greater than 100 µM in [3] and greater than 100 µM in data set [4]. Further, the Ratio IC50 in the data set listed under Homo sapiens [5], in the data set listed under Homo sapiens [6] and in the data set listed under Homo sapiens [7] was greater than 2 in each case.

As to `Nc1nc2cc(C(F)(F)F)ccn2c1-c1ccc(O)cc1`, the IC50 was 42 µM in [1], greater than 100 µM in data set [2], greater than 100 µM in data set [3] and greater than 100 µM in data set [4]. In addition, the Ratio IC50 in the data set filed under Homo sapiens [5], in the data set filed under Homo sapiens [6] and in the data set filed under Homo sapiens [7] was greater than 2 each time.

Turning to `CCc1c(-c2ccc(C(=O)NC)nc2)cnc(N)c1-c1ccc(O)cc1`, the IC50 in [9] stood at 1.3 µM.

On to `CC(=O)Nc1nc2ccccn2c1-c1ccc(O)cc1`, for which the IC50 in data set [1] is 34 µM; in data set [2], greater than 100 µM; in data set [3], greater than 100 µM; in data set [4], greater than 100 µM. This molecule showed a solubility in [10] greater than 800 µM. In addition, the result in data set [11], in data set [15] and in [16] was Active. For the same molecule, the Kd in data set [12] was 680 µM; in data set [13], 580 µM; in data set [14], 540 µM.

With `COc1ccc(-c2c(N)nc3ccccn23)cc1`, the IC50 in data set [1] is 38 µM; in [2] it was greater than 100 µM; in data set [3], greater than 100 µM; in data set [4] it was greater than 100 µM. Besides, the Ratio IC50 in the data set listed under Homo sapiens [5], in the data set listed under Homo sapiens [6] and in the data set listed under Homo sapiens [7] was greater than 2 each time.

As for `Nc1nc2c(C(F)(F)F)cccn2c1-c1ccc(O)cc1`, the IC50 is 26 µM in data set [1], greater than 100 µM in data set [2], greater than 100 µM in data set [3] and greater than 100 µM in [4]. Also, the Ratio IC50 in the data set listed under Homo sapiens [5], in the data set listed under Homo sapiens [6] and in the data set listed under Homo sapiens [7] was greater than 2 throughout.

For the molecule `Nc1nc2ccc(C(F)(F)F)cn2c1-c1ccc(O)cc1`, the IC50 in data set [1] is 48 µM; in data set [2], greater than 100 µM; in data set [3], greater than 100 µM; in [4], greater than 100 µM. Besides, the Ratio IC50 in the data set filed under Homo sapiens [5], in the data set listed under Homo sapiens [6] and in the data set listed under Homo sapiens [7] was greater than 2 throughout.

On to `Nc1nc2cc(C3CCNCC3)ccn2c1-c1ccc(O)cc1`, for which the IC50 in data set [1] is 5.3 µM; in data set [2], greater than 100 µM; in data set [3] it was greater than 100 µM; in [4], greater than 100 µM. Moreover, the Ratio IC50 in the data set filed under Homo sapiens [5], in the data set listed under Homo sapiens [6] and in the data set filed under Homo sapiens [7] was greater than 2 throughout.
